{
  "source": "patent US20140213520A1",
  "about": "“METHODS OF TREATING CARDIOVASCULAR INDICATIONS” (Cardiorentis Ltd., priority 2013, published 2014)",
  "assay_type_in_all_cases": "cell-based",
  "key": {"[1]": {"tested_on": "Cardiac microvascular endothelial cells (HCMEC)", "experiment": "apoptosis ELISA measuring DNA fragmentation in HCMEC exposed to conditioned milieu (cocktail)", "conditions": "HCMEC exposed 30 hours to cocktail (C-reactive protein, TNF-alpha, IL-1β, endothelin-1, galectin-3); treated at 2, 4, 6, 10 or 24 hours; FIG. 1", "experimental": "(§1) Cardiac microvascular endothelial cells (“HCMEC”) were exposed for 30 hours to a conditioned milieu (“cocktail”) containing a selection of factors (C-reactive protein at 10 μg/ml, TNF-alpha at 10 μg/ml, IL-1β at 10 ng/ml, endothelin-1 at 10 pg/ml and galectin-3 at 20 ng/ml) found in the plasma of ADHF patients. […] The cells from each exposure were harvested at 30 hours for experimental data. Experimental readouts included apoptosis, total protein nitrosylation and lactate dehydrogenase (“LDH”) assay.\nIn the data represented by FIG. 1, apoptosis was assessed by performing an ELISA (enzyme-linked immunosorbent assay) measuring DNA fragmentation."}, "[2]": {"tested_on": "Cardiac microvascular endothelial cells (HCMEC)", "experiment": "LDH assay: LDH release into culture medium by spectrophotometry", "conditions": "HCMEC exposed 30 hours to cocktail; treatment at two hours; FIG. 3", "experimental": "as §1\nFIG. 3 depicts a LDH assay that was performed by measuring LDH release (by spectrophotometry) in the medium where cells were cultured. LDH is a cytoplasmic enzyme released by cells following membrane damage (i.e., cell death)."}, "[3]": {"tested_on": "Cardiac microvascular endothelial cells (HCMEC)", "experiment": "total protein nitrosylation by western blotting in HCMEC exposed to cocktail", "conditions": "HCMEC exposed 30 hours to cocktail; treated at 2, 4, 6, 10 or 24 hours; FIG. 2", "experimental": "as §1\nThe data represented by FIG. 2 is directed to protein nitrosylation which is a postranlational modification caused by peroxynitrite. Peroxynitrite (ONOO^−) results from the scavenging action of superoxide anion (O2^−) on nitric oxide (NO) and results in a decreased bioavailability of the latter. Protein Nitrosylation has several deleterious effects on key vasoactive factors and their function, e.g. prostacyclin synthase is inactivated by nitrosylation."}},
  "data": [
    {"substance": "relaxin", "values": [
      {"measurement": "cocktail-induced apoptosis (DNA fragmentation ELISA)", "setting": "[1]", "value": "decrease cocktail-induced apoptosis"},
      {"measurement": "LDH release (cell death)", "setting": "[2]", "value": "increase in cell death"},
      {"measurement": "protein nitrosylation (western blotting)", "setting": "[3]", "value": "antioxidant property that decreases over time"}
    ]}
  ]
}
